System: Rat Bleomycin Model
Experiment: Rat bleomycin model of lung fibrosis: histological analysis of interstitial collagen deposition (Picrosirius red stain)
Type: in vivo
Settings: co-administration with bleomycin, relative area and intensity of interstitial collagen (manual score), FIG. 1
Experimental: Appl. Pharmacol. (1992)116:30-7). Another well-established model for lung fibrosis is the rat bleomycin model published by E. White et al, Am J Respir Crit Care Med. 2006, 173: 112-121.
A histological analysis of levels of collagen deposition in the lung interstitium, as determined using Picrosirius red stain, for bleomycin alone as well as combinations of bleomycin and several other compounds, including AMN107, was performed. As depicted in FIG. 1 showing the levels of interstitial collagen in lung tissue as determined histologically using Picrosirius red stain (statistical analysis: Man Whitney rank sum test), co-administration of AMN107 can reduce the effect of bleomycin by more than 50%.

For `Cc1cn(-c2cc(NC(=O)c3ccc(C)c(Nc4nccc(-c5cccnc5)n4)c3)cc(C(F)(F)F)c2)cn1` [AMN107, 4-methyl-3-[[4-(3-pyridinyl)-2-pyrimidinyl]amino]-N-[5-(4-methyl-1H-imidazol-1-yl)-3-(trifluoromethyl)phenyl]benzamide], the “reduction of the effect of bleomycin on levels of interstitial collagen in lung tissue” value was “more than 50%”.
